Experimental data: patent US20210147381A1, “1,2,3,4-SUBSTITUTED QUINOLINE COMPOUNDS AS SIP MODULATORS” (AbbVie Deutschland GmbH & Co. KG, priority 2017, published 2021)

Columns and labels:
Assay type in all cases: cell-based
[1] = molecular target: T1, human S1P5 receptor (S1PR5) (Homo sapiens, UniProt Q9H228); test: Intracellular Ca2+ release (method 1), agonist potency and efficacy, S1P5; settings: for Emax: read-out: hS1P5 EMax; for EC50: recombinant CHO-K1 cells expressing human S1PR5, aequorin, Gq/i5, Ca2+ release, read-out: S1P5 EC50 range
T1 construct: host or cells: CHO-K1
T1 sequence (Q9H228 whole entry): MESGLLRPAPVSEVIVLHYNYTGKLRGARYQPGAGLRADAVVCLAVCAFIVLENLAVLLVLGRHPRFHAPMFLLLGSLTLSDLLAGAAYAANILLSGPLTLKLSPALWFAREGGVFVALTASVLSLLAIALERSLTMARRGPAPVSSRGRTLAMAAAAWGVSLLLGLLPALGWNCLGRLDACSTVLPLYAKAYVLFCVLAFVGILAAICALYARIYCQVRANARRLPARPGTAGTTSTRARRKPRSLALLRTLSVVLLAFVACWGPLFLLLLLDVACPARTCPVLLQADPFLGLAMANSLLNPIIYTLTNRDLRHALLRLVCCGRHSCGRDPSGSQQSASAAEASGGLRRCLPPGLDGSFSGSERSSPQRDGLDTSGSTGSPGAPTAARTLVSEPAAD
Description: (§1) Agonistic activity and efficacy of compounds was assessed in recombinant cells using method 1 described below.
(§2) Agonist potency and efficacy were assessed by measurement of intracellular Ca^2+ release. Recombinant CHO-K1 cells (Euroscreen, Brussels, Belgium) expressing human S1PR5, S1PR1, S1PR3 or S1PR4 receptors, aequorin, and GTP binding protein Gq/i5 were cultured using a medium containing nutrient mixture F-12 Ham (Sigma-Aldrich) with 10% FBS, and 100 μg/mL gentamicin and equilibrated at 5% CO2.
(§3) 15,000 cells in 20 μL medium were seeded into Biocoat poly-D-Lysine coated 384 well plates (Becton Dickinson #35-6663) and grown to 95% confluency after 24 h.
(§4) Culture medium was replaced by an assay buffer consisting of HBBS with Ca^2+ and Mg^2+ (Invitrogen #14025-050), 20 mmol/L Hepes (Sigma-Aldrich #H-3375), 2.5 mmol/L probenecid (Sigma-Aldrich #P-8761, and 0.1% BSA (Sigma-Aldrich #A-7030) pH 7.4. The Calcium 5 no-wash FLIPR assay kit (Molecular Devices #5000625) was performed as described in the kit instructions. Cells were incubated with Calcium 5 dye for 1 h at 37° C., 5% CO2 in the dark. After 45 min adaptation to RT assessment of agonist stimulation of intracellular Ca^2+ release was performed by addition of test compounds at various concentrations obtained by serial dilution. Phospho-fingolimod was used as positive control and reference agonist (intrinsic activity 100%).
(§5) Agonism of test compounds at the human S1Px receptors were characterized by the EC50 values (potencies) deduced from a nonlinear 4 parametric logistic curve fit to the measured fluorescence data after normalization to the lower and upper plateaus of the fitted reference agonist's (phospho-fingolimod)effect curve and by their efficacy (Emax) values represented by their maximum achievable effects in % of the reference agonist's efficacy, which is defined as an Emax of 100%.

[2] = molecular target: T2, human S1P1 receptor (S1PR1) (Homo sapiens, UniProt P21453); test: Intracellular Ca2+ release (method 1), agonist potency, S1P1; settings: CHO-K1 cells expressing human S1PR1; cells given as bound
T2 construct: host or cells: CHO-K1
T2 sequence (P21453 whole entry): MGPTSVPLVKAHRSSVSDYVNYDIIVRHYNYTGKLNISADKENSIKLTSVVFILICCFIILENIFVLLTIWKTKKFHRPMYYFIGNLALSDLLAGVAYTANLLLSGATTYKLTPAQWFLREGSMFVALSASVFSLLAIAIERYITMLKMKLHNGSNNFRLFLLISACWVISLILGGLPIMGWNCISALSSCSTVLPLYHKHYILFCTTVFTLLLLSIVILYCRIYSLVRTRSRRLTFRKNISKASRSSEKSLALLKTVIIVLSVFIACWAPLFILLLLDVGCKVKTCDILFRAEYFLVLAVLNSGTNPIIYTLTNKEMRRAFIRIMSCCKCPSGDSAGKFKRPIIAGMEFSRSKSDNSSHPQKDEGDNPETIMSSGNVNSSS
Description: as §1, §2, §3, §4, §5

[3] = molecular target: T3, human S1P4 receptor (S1PR4) (Homo sapiens, UniProt O95977); test: Intracellular Ca2+ release (method 1), agonist potency, S1P4; settings: CHO-K1 cells expressing human S1PR4
T3 construct: host or cells: CHO-K1
T3 sequence (O95977 1-384): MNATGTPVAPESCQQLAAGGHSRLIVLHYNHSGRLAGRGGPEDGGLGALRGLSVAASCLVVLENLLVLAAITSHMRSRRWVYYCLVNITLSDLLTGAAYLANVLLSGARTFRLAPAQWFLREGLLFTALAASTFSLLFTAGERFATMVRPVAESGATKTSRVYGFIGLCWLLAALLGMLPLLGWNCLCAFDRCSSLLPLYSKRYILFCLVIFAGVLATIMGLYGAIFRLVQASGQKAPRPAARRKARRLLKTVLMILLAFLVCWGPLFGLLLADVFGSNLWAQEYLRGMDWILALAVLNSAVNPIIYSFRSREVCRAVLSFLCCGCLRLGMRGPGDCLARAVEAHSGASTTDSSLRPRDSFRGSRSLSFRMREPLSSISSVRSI
Description: as §1, §2, §3, §4, §5

[4] = maximum effect in % of reference agonist phospho-fingolimod (100%)

Emax [1, 4]	EC50 [1]	EC50 [2]	EC50 ([3]; cells given as bound)	EC50 [3]	SMILES	hS1P5 EMax [1, 4]
50 to 100%	< 10 nM	> 1000 nM	> 1000 nM	–	CC(CC(=O)O)CN1Cc2ccc(C#Cc3ccc(C(C)C)cc3)cc2C2(CC2)C1 (stereo not shown) [Compound 60, 4-(6′-((4-isopropylphenyl)ethynyl)-1′H-spiro[cyclopropane-1,4′-isoquinolin]-2′(3′H)-yl)-3-methylbutanoic acid]	–
< 50%	100 to 1000 nM	> 1000 nM	–	100 to 1000 nM	O=C(O)CCCN1Cc2ccc(OCc3ccc(Cl)cc3)cc2C2(CC2)C1 [Compound 16, 4-(6′-((4-Chlorobenzyl)oxy)-1′H-spiro[cyclopropane-1,4′-isoquinolin]-2′(3′H)-yl)butanoic acid]	–
50 to 100%	10 to 100 nM	> 1000 nM	> 1000 nM	–	CCOc1ccc(C#Cc2ccc3c(c2)C2(CC2)CN(C2CC(C(=O)O)C2)C3)cc1F (stereo not shown) [Compound 72, 3-(6′-((4-ethoxy-3-fluorophenyl)ethynyl)-1′H-spiro[cyclopropane-1,4′-isoquinolin]-2′(3′H)-yl)cyclobutanecarboxylic acid]	–
50 to 100%	10 to 100 nM	> 1000 nM	> 1000 nM	–	CCOc1cc(C)c(C#Cc2ccc3c(c2)C2(CC2)CN(CC(C)CC(=O)O)C3)cn1 (stereo not shown) [Compound 67, 4-(6′-((6-ethoxy-4-methylpyridin-3-yl)ethynyl)-1′H-spiro[cyclopropane-1,4′-isoquinolin]-2′(3′H)-yl)-3-methylbutanoic acid]	–
50 to 100%	< 10 nM	> 1000 nM	> 1000 nM	–	CC(CC(=O)O)CN1Cc2ccc(C#Cc3ccc(OC(F)(F)F)c(F)c3)cc2C2(CC2)C1 (stereo not shown) [Compound 61, 4-(6′-((3-fluoro-4-(trifluoromethoxy)phenyl)ethynyl)-1′H-spiro[cyclopropane-1,4′-isoquinolin]-2′(3′H)-yl)-3-methylbutanoic acid]	–
50 to 100%	1000 to 10000 nM	> 1000 nM	> 1000 nM	–	CCOc1ccc(C#Cc2ccc3c(c2)C2(CC2)CN(C2CC(C(=O)O)C2)C3)nc1 (stereo not shown) [Compound 73, 3-(6′-((5-ethoxypyridin-2-yl)ethynyl)-1′H-spiro[cyclopropane-1,4′-isoquinolin]-2′(3′H)-yl)cyclobutanecarboxylic acid]	–
50 to 100%	10 to 100 nM	> 1000 nM	> 1000 nM	–	CCOc1ccc(C#Cc2ccc3c(c2)C2(CC2)CN(CC(C)CC(=O)O)C3)cc1 (stereo not shown) [Compound 63, 4-(6′-((4-ethoxyphenyl)ethynyl)-1′H-spiro[cyclopropane-1,4′-isoquinolin]-2′(3′H)-yl)-3-methylbutanoic acid]	–
50 to 100%	10 to 100 nM	> 1000 nM	> 1000 nM	–	CC(C)Oc1ccc(C#Cc2ccc3c(c2)C2(CC2)CN(C2CC(C(=O)O)C2)C3)nc1 (stereo not shown) [Compound 70, 3-(6′-((5-isopropoxypyridin-2-yl)ethynyl)-1′H-spiro[cyclopropane-1,4′-isoquinolin]-2′(3′H)-yl)cyclobutanecarboxylic acid]	–
50 to 100%	100 to 1000 nM	> 1000 nM	–	100 to 1000 nM	O=C(O)CN1Cc2ccc(OCc3c(Cl)cccc3Cl)cc2C2(CC2)C1 [Compound 12, 2-(6′-((2,6-Dichlorobenzyl)oxy)-1′H-spiro[cyclopropane-1,4′-isoquinolin]-2′(3′H)-yl)acetic acid]	–
50 to 100%	10 to 100 nM	> 1000 nM	> 1000 nM	–	CC(CC(=O)O)CN1Cc2ccc(C#Cc3ccsc3)cc2C2(CC2)C1 (stereo not shown) [Compound 68, 3-methyl-4-(6′-(thiophen-3-ylethynyl)-1′H-spiro[cyclopropane-1,4′-isoquinolin]-2′(3′H)-yl)butanoic acid]	–
50 to 100%	10 to 100 nM	> 1000 nM	> 1000 nM	–	O=C(O)C1CC(N2Cc3ccc(C#Cc4ccc(OC(F)(F)F)c(F)c4)cc3C3(CC3)C2)C1 (stereo not shown) [Compound 71, 3-(6′-((3-fluoro-4-(trifluoromethoxy)phenyl)ethynyl)-1′H-spiro[cyclopropane-1,4′-isoquinolin]-2′(3′H)-yl)cyclobutanecarboxylic acid]	–
50 to 100%	100 to 1000 nM	> 1000 nM	> 1000 nM	–	CCOc1ccc(C#Cc2ccc3c(c2)C2(CC2)CN(CC(=O)O)C3)cc1 [Compound 5, 2′-(carboxymethyl)-6′-((4-ethoxyphenyl)ethynyl)-2′,3′-dihydro-1′H-spiro[cyclopropane-1,4′-isoquinolin]-2′-ium 2,2,2-trifluoroacetate]	–
> 100%	100 to 1000 nM	> 1000 nM	> 1000 nM	–	CC(C)c1ccc(C#Cc2ccc3c(c2)C2(CC2)CN(CC(=O)O)C3)cc1 [Compound 6, 2′-(carboxymethyl)-6′-((4-isopropylphenyl)ethynyl)-2′,3′-dihydro-1′H-spiro[cyclopropane-1,4′-isoquinolin]-2′-ium 2,2,2-trifluoroacetate]	–
> 100%	10 to 100 nM	> 1000 nM	> 1000 nM	–	CCOc1ccc(C#Cc2ccc3c(c2)C2(CC2)CN(CC(C)CC(=O)O)C3)cc1F (stereo not shown) [Compound 69, 4-(6′-((4-ethoxy-3-fluorophenyl)ethynyl)-1′H-spiro[cyclopropane-1,4′-isoquinolin]-2′(3′H)-yl)-3-methylbutanoic acid]	–
50 to 100%	100 to 1000 nM	> 1000 nM	> 1000 nM	–	CCOc1ccc(C#Cc2ccc3c(c2)C2(CC2)CN(CCCC(=O)O)C3)c(C)n1 [Compound 53, 4-(6′-((6-ethoxy-2-methylpyridin-3-yl)ethynyl)-1′H-spiro[cyclopropane-1,4′-isoquinolin]-2′(3′H)-yl)butanoic acid]	–
50 to 100%	100 to 1000 nM	> 1000 nM	> 1000 nM	–	CCOc1ccc(C#Cc2ccc3c(c2)C2(CC2)CN(CCCC(=O)O)C3)cn1 [Compound 50, 4-(6′-((6-ethoxypyridin-3-yl)ethynyl)-1′H-spiro[cyclopropane-1,4′-isoquinolin]-2′(3′H)-yl)butanoic acid]	–
50 to 100%	< 10 nM	> 1000 nM	> 1000 nM	–	CC(CC(=O)O)CN1Cc2ccc(C#Cc3ccc(OC(C)C)nc3)cc2C2(CC2)C1 (stereo not shown) [Compound 59, 4-(6′-((6-isopropoxypyridin-3-yl)ethynyl)-1′H-spiro[cyclopropane-1,4′-isoquinolin]-2′(3′H)-yl)-3-methylbutanoic acid]	–
50 to 100%	10 to 100 nM	> 1000 nM	> 1000 nM	–	CCOc1cc(C)c(C#Cc2ccc3c(c2)C2(CC2)CN(CCCC(=O)O)C3)cn1 [Compound 49, 4-(6′-((6-ethoxy-4-methylpyridin-3-yl)ethynyl)-1′H-spiro[cyclopropane-1,4′-isoquinolin]-2′(3′H)-yl)butanoic acid]	–
> 100%	10 to 100 nM	> 1000 nM	> 1000 nM	–	CC(CC(=O)O)CN1Cc2ccc(C#Cc3ccc(OC4CCCC4)cc3)cc2C2(CC2)C1 (stereo not shown) [Compound 64, 4-(6′-((4-(cyclopentyloxy)phenyl)ethynyl)-1′H-spiro[cyclopropane-1,4′-isoquinolin]-2′(3′H)-yl)-3-methylbutanoic acid]	–
50 to 100%	100 to 1000 nM	> 1000 nM	> 1000 nM	–	CC(CC(=O)O)CN1Cc2ccc(C#Cc3cccc(F)c3F)cc2C2(CC2)C1 (stereo not shown) [Compound 66, 4-(6′-((2,3-difluorophenyl)ethynyl)-1′H-spiro[cyclopropane-1,4′-isoquinolin]-2′(3′H)-yl)-3-methylbutanoic acid]	–
–	–	–	–	100 to 1000 nM	CC(=O)O.O=C(O)CCN1Cc2ccc(C#Cc3c(Cl)cccc3Cl)cc2C2(CC2)C1 [Compound 30, 3-(6′-((2,6-dichlorophenyl)ethynyl)-1′H-spiro[cyclopropane-1,4′-isoquinolin]-2′(3′H)-yl)propanoic acid acetic acid salt (1:1)]	++ (EMax = 50-100, determined with method 1)
